≈ marks a conversion by molar mass, not a printed value.

The source of these data is ChEMBL document CHEMBL1136459, “New antibacterial tetrahydro-4(2H)-thiopyran and thiomorpholine S-oxide and S,S-dioxide phenyloxazolidinones” (Bioorg Med Chem Lett, 2003).

For one test, the system named is Enterococcus faecium. In words: In vitro antibacterial activity against vancomycin-resistant Enterococcus faecium UC12712 (VRE).
For test [1], the system named is Staphylococcus aureus. In words: In vitro antibacterial activity against Staphylococcus aureus strains UC12673, UC9213, ATCC 29213, and UC9271 (SA); range is 2-4. Format: functional.
The test system of test [2] is Staphylococcus epidermidis. The test can be described thus: In vitro antibacterial activity against Staphylococcus epidermidis strains UC12084, 30031, and CDC-CNS90 (SE). In kind it is functional.
Test [3] concerns Haemophilus influenzae. The test can be described thus: In vitro antibacterial activity against Haemophilia influenzae strains 30063 and ATCC 31517 (HI); range is 4-8. In kind it is functional.
The test system of test [4] is Streptococcus pneumoniae. In words: In vitro antibacterial activity against Streptococcus pneumoniae strains ATCC6305 and 31573 (SPN).
The test system of test [5] is Staphylococcus aureus. The test can be described thus: In vitro antibacterial activity against linezolid-resistant Staphylococcus aureus ATCC 29213 (LRSA). Format: functional.
The subject of test [6] is Moraxella catarrhalis. In words: In vitro antibacterial activity against Moraxella catarrhalis strains 30607 and 30603 (MC); range is 2-4. In kind it is functional.
Test [7] has as its system Haemophilus influenzae. The test can be described thus: In vitro antibacterial activity against Haemophilia influenzae strains 30063 and ATCC 31517 (HI); range is 16-32. Format: functional.
For test [8], the system named is Moraxella catarrhalis. The test can be described thus: In vitro antibacterial activity against Moraxella catarrhalis strains 30607 and 30603 (MC). Format: functional.
The subject of test [9] is Staphylococcus aureus. The test can be described thus: In vitro antibacterial activity against Staphylococcus aureus strains UC12673, UC9213, ATCC 29213, and UC9271 (SA); range is 4-16. In kind it is functional.
Test [10] concerns Staphylococcus aureus. The test can be described thus: In vitro antibacterial activity against Linezolid resistance Staphylococcus aureus ATCC 29213 (LRSA).
Test [11] has as its system Staphylococcus aureus. In words: In vitro antibacterial activity against Staphylococcus aureus strains UC12673, UC9213, ATCC 29213, and UC9271 (SA); range is 1-2. Format: functional.
In test [12] the test system is Staphylococcus epidermidis. In words: In vitro antibacterial activity against Staphylococcus epidermidis strains UC12084, 30031, and CDC-CNS90 (SE); range is 0.5-1. Format: functional.
In test [13] the test system is Streptococcus pneumoniae. In words: In vitro antibacterial activity against Streptococcus pneumoniae strains ATCC 6305 and 31573 (SPN); range is 0.5-1.
Test [14] concerns Haemophilus influenzae. In words: In vitro antibacterial activity against Haemophilia influenzae strains ATCC 30063 and ATCC 31517. In kind it is functional.
Test [15] concerns Staphylococcus aureus. The test can be described thus: In vitro antibacterial activity against Staphylococcus aureus strains UC12673, UC9213, ATCC 29213, and UC9271 (SA); range is 8-16. In kind it is functional.
Test [16] deals with Staphylococcus aureus. In words: In vitro antibacterial activity against Staphylococcus aureus strains UC12673, UC9213, ATCC 29213, and UC9271 (SA). In kind it is functional.
In test [17] the test system is Streptococcus pneumoniae. The test can be described thus: In vitro antibacterial activity against Streptococcus pneumoniae strains ATCC 6305 and 31573 (SPN); range is 32-64. In kind it is functional.
Test [18] concerns Staphylococcus epidermidis. The test can be described thus: In vitro antibacterial activity against Staphylococcus epidermidis strains UC12084, 30031, and CDC-CNS90 (SE); range is 32->64. In kind it is functional.

Turning to `CC(=O)NC[C@H]1CN(c2ccc(C3CCS(=O)(=O)CC3)c(F)c2)C(=O)O1`, the MIC against Enterococcus faecium came out at 2 µg/mL (≈ 5.2 µM); against Staphylococcus aureus [1], 2 µg/mL (≈ 5.2 µM); in [2], 0.5 µg/mL (≈ 1.3 µM); with Haemophilus influenzae [3] it was 4 µg/mL (≈ 10.4 µM); in the test on Streptococcus pneumoniae [4], 0.5 µg/mL (≈ 1.3 µM); against Staphylococcus aureus [5], 32 µg/mL (≈ 83.2 µM). In the test on Moraxella catarrhalis [6], this compound gave an MIC of 2 µg/mL (≈ 5.2 µM).
Regarding `O=C(NC[C@H]1CN(c2ccc(N3CCS(=O)(=O)CC3)c(F)c2)C(=O)O1)C1CC1`, the MIC against Enterococcus faecium came out at 4 µg/mL (≈ 9.72 µM); with Haemophilus influenzae [7] it was 16 µg/mL (≈ 38.9 µM); in the test on Moraxella catarrhalis [8] it was 4 µg/mL (≈ 9.72 µM); with Streptococcus pneumoniae [4], 2 µg/mL (≈ 4.86 µM); with Staphylococcus aureus [9], 4 µg/mL (≈ 9.72 µM); against Staphylococcus aureus [10], 2 µg/mL (≈ 4.86 µM).
Take `CO/N=C/c1ccc(/C=C/C(=O)NC[C@H]2CN(c3ccc(N4CC[S+]([O-])CC4)c(F)c3)C(=O)O2)cc1`: the MIC worked out at 2 µg/mL (≈ 3.89 µM) against Enterococcus faecium; 1 µg/mL (≈ 1.94 µM) with Staphylococcus aureus [11]; 0.5 µg/mL (≈ 0.972 µM) in test [12]; 0.5 µg/mL (≈ 0.972 µM) with Streptococcus pneumoniae [13]; 4 µg/mL (≈ 7.77 µM) in the test with Moraxella catarrhalis [8]; 64 µg/mL (≈ 124 µM) against Staphylococcus aureus [5]. Moreover, the MIC in the test on Haemophilus influenzae [14] was > 64 µg/mL.
With `O=C(CC(F)(F)F)NC[C@H]1CN(c2ccc(N3CCS(=O)(=O)CC3)c(F)c2)C(=O)O1`, the MIC against Enterococcus faecium was 4 µg/mL (≈ 8.82 µM); against Haemophilus influenzae [7], 16 µg/mL (≈ 35.3 µM); in the test on Staphylococcus aureus [15], 8 µg/mL (≈ 17.6 µM); in test [2], 4 µg/mL (≈ 8.82 µM); with Moraxella catarrhalis [8], 16 µg/mL (≈ 35.3 µM); with Staphylococcus aureus [5], > 64 µg/mL.
With `NCCC(O)C(=O)NC[C@H]1CN(c2ccc(C3CCS(=O)(=O)CC3)c(F)c2)C(=O)O1` (stereo partly drawn), the MIC was > 64 µg/mL in test [2]; > 64 µg/mL against Staphylococcus aureus [16]; > 64 µg/mL with Moraxella catarrhalis [8]; > 64 µg/mL against Staphylococcus aureus [5]; 32 µg/mL (≈ 72.2 µM) in the test with Streptococcus pneumoniae [17]; > 64 µg/mL in the test on Haemophilus influenzae [14].
Regarding `CC(C)CCC(=O)NC[C@H]1CN(c2ccc(N3CC[S+]([O-])CC3)c(F)c2)C(=O)O1`, the MIC in the test with Enterococcus faecium is > 64 µg/mL; in [18] it was 32 µg/mL (≈ 75.2 µM); in the test with Staphylococcus aureus [16], ≥ 64 µg/mL; against Moraxella catarrhalis [8] it was > 64 µg/mL; against Staphylococcus aureus [5] it was > 64 µg/mL; against Haemophilus influenzae [14], > 64 µg/mL.
